{
  "source": "patent US20250262191A1",
  "about": "“NEW CRYSTAL FORM OF NITROGEN-CONTAINING TRICYCLIC COMPOUND AND USE THEREOF” (SUNSHINE LAKE PHARMA CO., LTD., priority 2021, published 2025)",
  "key": {"[1]": {"experiment": "Pharmacokinetic experiment in Beagle dogs, oral capsules", "format": "in vivo", "details": "male Beagle dogs, 5 mg/kg", "protocol": "The crystal form H of the compound having Formula (I) was filled into capsules, which were used for oral administration.\nThree male Beagle dogs weighing 8-12 kg were orally administered with capsules containing the test sample at a dose of 5 mg/kg, and blood samples were taken at time points of 0.25 h, 0.5 h, 1.0 h, 2.0 h, 4.0 h, 6.0 h, 8.0 h and 24 h. Standard curve was plotted based on concentrations of the samples in a suitable range, the concentration of the test sample in the plasma sample was measured and quantified by AB SCIEX API4000 LC-MS/MS at MRM mode. Pharmacokinetic parameters were calculated according to drug concentration-time curve using a noncompartmental method by WinNonLin 6.3 software."}, "[2]": {"experiment": "Hygroscopicity experiment by dynamic moisture adsorption (DVS)", "format": "physicochemical", "details": "relative humidity of 80%, 25° C.", "protocol": "The hygroscopicity of the present invention is measured using the DVS INT-Std dynamic moisture and gas adsorption analyzer of the Surface Measurement Systems Company in UK. The humidity test range was 0%-95%, the air flow was 200 mL/min, the temperature was 25° C., test point: take one test point per […] 5% humidity.\nAn appropriate amount of the test sample was taken and the hygroscopicity of the test sample was tested by dynamic moisture adsorption device. The description of the hygroscopic characteristics and the definition of the hygroscopic weight gain (Appendix 9103 of Chinese Pharmacopoeia 2020 Edition, Guidelines for Drug Hygroscopicity Tests, experimental conditions: 25° C.±1° C., 80%±2% relative humidity) are described in the table below: […]"}, "[3]": {"experiment": "Stability experiment (high-temperature, high-humidity and photostability tests)", "format": "physicochemical", "protocol": "(§1) (1) High-temperature test: A batch of the test sample was taken into a flat weighing bottle, divided into ≤5 mm thick thin layer. The sample was placed at 60° C. for 30 days. The sample was then sampled at day 5, day 13 and day 30, and the change of the sample's color was observed. The purity of the sample was detected by HPLC.\nas §1, with “(2) High-humidity” for “(1) High-temperature”, “25° C., RH 90%±5%” for “60° C.”\nas §1, with “(3) Photostability” for “(1) High-temperature”, “placed in an opened light box (with UV)” for “placed”, “the illuminance […], UV light ≥0.7 w/m^2” for “60° C.”"}, "[4]": {"details": "High-humidity 25° C., RH 90%±5%, day 5"}, "[5]": {"details": "High-humidity 25° C., RH 90%±5%, day 13"}, "[6]": {"details": "High-humidity 25° C., RH 90%±5%, day 30"}, "[7]": {"details": "High-temperature 60° C., day 13"}, "[8]": {"details": "High-temperature 60° C., day 30"}, "[9]": {"details": "Lighting (light box with UV), day 5"}, "[10]": {"details": "Lighting (light box with UV), day 13"}, "[11]": {"details": "Lighting (light box with UV), day 30"}},
  "data": [
    {"compound": "O=C(O)c1ccc2c(c1)Oc1ccc(OCc3c(-c4c(Cl)cccc4Cl)noc3C3CC3)nc1C1(CC1)C2", "note": "[Crystal form H, 2-((5-cyclopropyl-3-(2,6-dichlorophenyl)isoxazol-4-yl)methoxy)-10H-spiro[benzo[6,7]oxepino[3,2-b]pyridine-11,1′-cyclopropane]-7-carboxylic acid]", "values": [
      {"measurement": "AUC(0-t)", "setting": "[1]; dog, plasma", "value": 1130, "unit": "ng·h/mL"},
      {"measurement": "Cmax", "setting": "[1]; dog, plasma", "value": 514, "unit": "ng/mL"},
      {"measurement": "Tmax", "setting": "[1]; dog, plasma", "value": 1.33, "unit": "h"},
      {"measurement": "exposure in Beagle dogs", "setting": "[1]", "value": "relatively large exposure"},
      {"measurement": "hygroscopic characteristics", "setting": "[2]", "value": "lightly hygroscopic"},
      {"measurement": "Appearance", "setting": "[3]; [4]", "value": "White"},
      {"measurement": "Purity (HPLC)", "setting": "[3]; [4]", "value": 99.89, "unit": "%"},
      {"measurement": "Appearance", "setting": "[3]; [5]", "value": "White"},
      {"measurement": "Purity (HPLC)", "setting": "[3]; [5]", "value": 99.92, "unit": "%"},
      {"measurement": "Appearance", "setting": "[3]; [6]", "value": "White"},
      {"measurement": "Purity (HPLC)", "setting": "[3]; [6]", "value": 99.85, "unit": "%"},
      {"measurement": "Appearance", "setting": "[3]; High-temperature 60° C., day 5", "value": "White"},
      {"measurement": "Purity (HPLC)", "setting": "[3]; High-temperature 60° C., day 5", "value": 99.89, "unit": "%"},
      {"measurement": "Appearance", "setting": "[3]; [7]", "value": "White"},
      {"measurement": "Purity (HPLC)", "setting": "[3]; [7]", "value": 99.72, "unit": "%"},
      {"measurement": "Appearance", "setting": "[3]; [8]", "value": "White"},
      {"measurement": "Purity (HPLC)", "setting": "[3]; [8]", "value": 99.86, "unit": "%"},
      {"measurement": "Appearance", "setting": "[3]; [9]", "value": "White"},
      {"measurement": "Purity (HPLC)", "setting": "[3]; [9]", "value": 99.90, "unit": "%"},
      {"measurement": "Appearance", "setting": "[3]; [10]", "value": "White"},
      {"measurement": "Purity (HPLC)", "setting": "[3]; [10]", "value": 99.91, "unit": "%"},
      {"measurement": "Appearance", "setting": "[3]; [11]", "value": "White"},
      {"measurement": "Purity (HPLC)", "setting": "[3]; [11]", "value": 99.72, "unit": "%"},
      {"measurement": "Appearance", "setting": "[3]; day 0", "value": "White"},
      {"measurement": "Purity (HPLC)", "setting": "[3]; day 0", "value": 99.83, "unit": "%"},
      {"measurement": "crystal structure stability", "setting": "[3]; high temperature conditions", "value": "remains basically unchanged"},
      {"measurement": "crystal structure stability", "setting": "[3]; high temperature, high humidity and/or lighting conditions", "value": "remains basically unchanged"},
      {"measurement": "changes in the appearance and chemical purity", "setting": "[3]; high-temperature, high-humidity and/or lighting", "value": "no obvious changes"}
    ]}
  ]
}
